Data: the supplement of paper PMC5908809

Experiments:
[1] = tested on: normal NK cells expanded with K562-aAPC; test: percent inhibition of viability; higher = more inhibition; settings: 72 h, IL-2 2.5 ng/mL
Description: (§1)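 Drug sensitivity and resistance testing on K562-aAPC-expanded normal NK cells: 5 concentrations (10-fold steps over a 10,000-fold range), 72 h at 37 °C, viability by CellTiter-Glo normalised to DMSO and benzethonium chloride controls; DSS from the fitted curve.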

DERL-7 (IL-2 2.5 ng/mL) [2] = test: as above; settings: 72 h
IMC-1 (IL-2 20 ng/mL) [3] = test: as above; settings: 72 h
KAI3 (IL-2 2.5 ng/mL) [4] = test: as above; settings: 72 h
KHYG-1 (IL-2 2.5 ng/mL) [5] = test: as above; settings: 72 h
NK-92 (IL-2 2.5 ng/mL) [6] = test: as above; settings: 72 h
NK-YS (IL-2 2.5 ng/mL) [7] = test: as above; settings: 72 h
NKL (IL-2 2.5 ng/mL) [8] = test: as above; settings: 72 h
SNK-6 (IL-2 2.5 ng/mL) [9] = test: as above; settings: 72 h
YT (IL-2 2.5 ng/mL) [10] = test: as above; settings: 72 h
[11] = tested on: normal primary NK cells, pool 1 (3 donors) (IL-2 2.5 ng/mL); test: as above; settings: 72 h
[12] = tested on: normal primary NK cells, pool 1 (3 donors), resting (IL-2 0 ng/mL); test: as above; settings: 72 h
[13] = tested on: normal primary NK cells, pool 2 (3 donors) (IL-2 2.5 ng/mL); test: as above; settings: 72 h
[14] = tested on: normal primary NK cells, pool 3 (3 donors) (IL-2 2.5 ng/mL); test: as above; settings: 72 h
[15] = tested on: normal NK cells expanded with K562-aAPC; test: drug sensitivity score (DSS) (DSS units); higher = more sensitive; extreme values may be limits of the assay; settings: 72 h; IL-2 2.5 ng/mL
Description: as §1

DERL-7 (IL-2 2.5 ng/mL) [16] = test: as above; settings: 72 h
IMC-1 (IL-2 20 ng/mL) [17] = test: as above; settings: 72 h
KAI3 (IL-2 2.5 ng/mL) [18] = test: as above; settings: 72 h
KHYG-1 (IL-2 2.5 ng/mL) [19] = test: as above; settings: 72 h
NK-92 (IL-2 2.5 ng/mL) [20] = test: as above; settings: 72 h
NK-YS (IL-2 2.5 ng/mL) [21] = test: as above; settings: 72 h
NKL (IL-2 2.5 ng/mL) [22] = test: as above; settings: 72 h
SNK-6 (IL-2 2.5 ng/mL) [23] = test: as above; settings: 72 h
YT (IL-2 2.5 ng/mL) [24] = test: as above; settings: 72 h
[25] = tested on: normal primary NK cells, pool 1 (3 donors) (IL-2 2.5 ng/mL); test: as above; settings: 72 h
[26] = tested on: normal primary NK cells, pool 1 (3 donors), resting (IL-2 0 ng/mL); test: as above; settings: 72 h
[27] = tested on: normal primary NK cells, pool 2 (3 donors) (IL-2 2.5 ng/mL); test: as above; settings: 72 h
[28] = tested on: normal primary NK cells, pool 3 (3 donors) (IL-2 2.5 ng/mL); test: as above; settings: 72 h

O=NN(CCCl)C(=O)NCCCl [Carmustine] (max concentration tested 10000 nM)
percent inhibition of viability [%]
Settings	1 nM	10 nM	100 nM	1000 nM	10000 nM
DERL-7 (IL-2 2.5 ng/mL) [2]	5.36	1.21	3.36	-4.79	-4.35
IMC-1 (IL-2 20 ng/mL) [3]	-8.03	-3.09	-2.96	3.55	8.41
KAI3 (IL-2 2.5 ng/mL) [4]	12.9	6.82	6.77	13.6	17.8
KHYG-1 (IL-2 2.5 ng/mL) [5]	-12.5	-8.6	-6.75	0.23	1.87
NK-92 (IL-2 2.5 ng/mL) [6]	-3.64	-0.92	5.06	12.7	8.79
NK-YS (IL-2 2.5 ng/mL) [7]	-3.2	-2.47	-1.96	2.21	7.95
NKL (IL-2 2.5 ng/mL) [8]	4.96	5.53	6.04	16.2	15.6
SNK-6 (IL-2 2.5 ng/mL) [9]	-5.81	-6.45	1.48	-7.81	-8.51
YT (IL-2 2.5 ng/mL) [10]	-9.42	-5.55	-4.43	-1.14	11
[1]	-3.33	-8.02	-3.23	5.49	10.2
[11]	4.94	8.26	6.5	0.38	7.88
[12]	9.22	19.6	23.1	5.64	15.2
[13]	-2.54	3.84	0.64	0.07	9.39
[14]	-2.97	5.49	5.6	3.01	4.59

Settings	drug sensitivity score
DERL-7 (IL-2 2.5 ng/mL) [16]	0
IMC-1 (IL-2 20 ng/mL) [17]	0
KAI3 (IL-2 2.5 ng/mL) [18]	0
KHYG-1 (IL-2 2.5 ng/mL) [19]	0
NK-92 (IL-2 2.5 ng/mL) [20]	1.02
NK-YS (IL-2 2.5 ng/mL) [21]	0
NKL (IL-2 2.5 ng/mL) [22]	1.26
SNK-6 (IL-2 2.5 ng/mL) [23]	0
YT (IL-2 2.5 ng/mL) [24]	0
[15]	0.01
[25]	0
[26]	0
[27]	0
[28]	0

O=C(c1ccc(F)c(F)c1Nc1ccc(I)cc1F)N1CC(O)([C@@H]2CCCCN2)C1 [Cobimetinib] (max concentration tested 1000 nM)
percent inhibition of viability [%]
Settings	0.1 nM	1 nM	10 nM	100 nM	1000 nM
DERL-7 (IL-2 2.5 ng/mL) [2]	-2.43	3.83	18.1	32.9	46.5
IMC-1 (IL-2 20 ng/mL) [3]	-6.91	-4.02	-2.84	-2.89	11.3
KAI3 (IL-2 2.5 ng/mL) [4]	9.38	9.29	9.13	11.7	32.1
KHYG-1 (IL-2 2.5 ng/mL) [5]	0.28	-3.46	0.44	23.2	61.9
NK-92 (IL-2 2.5 ng/mL) [6]	-10.5	-14.3	-27.4	-34.9	9.96
NK-YS (IL-2 2.5 ng/mL) [7]	-1.72	-3.33	-3.31	6.41	24.2
NKL (IL-2 2.5 ng/mL) [8]	-12.4	-11.4	17.8	45	73.1
SNK-6 (IL-2 2.5 ng/mL) [9]	-10.3	-0.09	-17.7	-8.92	-10.9
YT (IL-2 2.5 ng/mL) [10]	0.33	-2.92	-2.04	-0.43	15.7
[1]	-7.24	-7.72	-6.49	1.17	21.4
[11]	-3.52	2.49	17.3	18.4	24
[12]	7.7	3.18	22	14	16.4
[13]	-3.62	-9.92	3.68	12.4	19.9
[14]	-9.25	-10.3	-2.76	-1.62	12.1

Settings	drug sensitivity score
DERL-7 (IL-2 2.5 ng/mL) [16]	7.96
IMC-1 (IL-2 20 ng/mL) [17]	0
KAI3 (IL-2 2.5 ng/mL) [18]	3.21
KHYG-1 (IL-2 2.5 ng/mL) [19]	6.6
NK-92 (IL-2 2.5 ng/mL) [20]	0
NK-YS (IL-2 2.5 ng/mL) [21]	1.78
NKL (IL-2 2.5 ng/mL) [22]	10.4
SNK-6 (IL-2 2.5 ng/mL) [23]	0
YT (IL-2 2.5 ng/mL) [24]	0.26
[15]	0.83
[25]	5.11
[26]	2.92
[27]	1.58
[28]	0.02

Cc1c2oc3c(C)ccc(C(=O)N[C@@H]4C(=O)N[C@H](C(C)C)C(=O)N5CCC[C@H]5C(=O)N(C)CC(=O)N(C)[C@@H](C(C)C)C(=O)O[C@@H]4C)c3nc-2c(C(=O)N[C@@H]2C(=O)N[C@H](C(C)C)C(=O)N3CCC[C@H]3C(=O)N(C)CC(=O)N(C)[C@@H](C(C)C)C(=O)O[C@@H]2C)c(N)c1=O [Dactinomycin] (max concentration tested 1000 nM)
percent inhibition of viability [%]
Settings	0.1 nM	1 nM	10 nM	100 nM	1000 nM
DERL-7 (IL-2 2.5 ng/mL) [2]	-0.87	44.9	83	101	101
IMC-1 (IL-2 20 ng/mL) [3]	-6.77	-14.7	38.1	100	101
KAI3 (IL-2 2.5 ng/mL) [4]	-6.19	34.4	52.9	103	107
KHYG-1 (IL-2 2.5 ng/mL) [5]	-3.25	36.4	71	106	108
NK-92 (IL-2 2.5 ng/mL) [6]	-12.8	-6.87	22	87.4	105
NK-YS (IL-2 2.5 ng/mL) [7]	5.62	72.3	94.4	106	107
NKL (IL-2 2.5 ng/mL) [8]	-4.78	72.4	84.8	108	110
SNK-6 (IL-2 2.5 ng/mL) [9]	33.9	71.2	81.7	99.6	78.6
YT (IL-2 2.5 ng/mL) [10]	0.56	51	97.4	107	108
[1]	1.4	5.24	28.6	101	101
[11]	5.89	7.37	35.9	98.4	98.6
[12]	-15.9	13.6	67.8	91.7	90.8
[13]	-13.2	8.51	64.2	94.5	95.7
[14]	-10.8	5.15	39.6	98.5	99.8

Settings	drug sensitivity score
DERL-7 (IL-2 2.5 ng/mL) [16]	33.6
IMC-1 (IL-2 20 ng/mL) [17]	23.2
KAI3 (IL-2 2.5 ng/mL) [18]	26.6
KHYG-1 (IL-2 2.5 ng/mL) [19]	30.4
NK-92 (IL-2 2.5 ng/mL) [20]	18.8
NK-YS (IL-2 2.5 ng/mL) [21]	39.5
NKL (IL-2 2.5 ng/mL) [22]	38.8
SNK-6 (IL-2 2.5 ng/mL) [23]	38.1
YT (IL-2 2.5 ng/mL) [24]	36.5
[15]	22.2
[25]	22
[26]	25.8
[27]	25.3
[28]	22.5

O=C(/C=C/c1cccnc1)NCCCCC1CCN(C(=O)c2ccccc2)CC1 [Daporinad] (max concentration tested 1000 nM)
percent inhibition of viability [%]
Settings	0.1 nM	1 nM	10 nM	100 nM	1000 nM
DERL-7 (IL-2 2.5 ng/mL) [2]	-1.42	36.4	98.7	99.8	101
IMC-1 (IL-2 20 ng/mL) [3]	-4.3	-0.58	95.2	101	99.6
KAI3 (IL-2 2.5 ng/mL) [4]	0.04	4.42	89.6	104	107
KHYG-1 (IL-2 2.5 ng/mL) [5]	-4.62	0.47	102	108	110
NK-92 (IL-2 2.5 ng/mL) [6]	-12.4	-11	78.5	107	110
NK-YS (IL-2 2.5 ng/mL) [7]	-0.02	65.7	101	107	109
NKL (IL-2 2.5 ng/mL) [8]	-7.99	8.6	96.8	106	109
SNK-6 (IL-2 2.5 ng/mL) [9]	-2.25	67.5	98.8	101	101
YT (IL-2 2.5 ng/mL) [10]	-3.84	3.35	72	106	109
[1]	-5.42	-8.02	95.3	98.9	99.5
[11]	3.25	78.4	97.4	98.2	98.6
[12]	19.1	78.8	93.6	93.4	94.4
[13]	1.47	71.4	96.2	96.4	95.7
[14]	0.86	57.3	98.6	99.3	100

Settings	drug sensitivity score
DERL-7 (IL-2 2.5 ng/mL) [16]	35.4
IMC-1 (IL-2 20 ng/mL) [17]	29.8
KAI3 (IL-2 2.5 ng/mL) [18]	29.3
KHYG-1 (IL-2 2.5 ng/mL) [19]	30.7
NK-92 (IL-2 2.5 ng/mL) [20]	26.9
NK-YS (IL-2 2.5 ng/mL) [21]	38.1
NKL (IL-2 2.5 ng/mL) [22]	31.6
SNK-6 (IL-2 2.5 ng/mL) [23]	38.3
YT (IL-2 2.5 ng/mL) [24]	26.6
[15]	29.2
[25]	39.6
[26]	40.4
[27]	37.9
[28]	37.3
